Results on 2 compounds are retold here after ChEMBL document CHEMBL4706474, “Tetrahydro-2-naphthyl and 2-Indanyl Triazolopyrimidines Targeting Plasmodium falciparum Dihydroorotate Dehydrogenase Display Potent and Selective Antimalarial Activity” (J Med Chem, 2016).

Values after ≈ are worked out from the molar mass of the structure shown. Where only a bound is given, the exact number is not on record here.

A word on the logD: it is lipophilicity at a set pH, counting ionised and neutral species. By EC50 is commonly meant the concentration giving half of the maximal effect. A higher EC50 goes with lower potency in that assay. By solubility is commonly meant how much of the substance goes into solution per volume. A higher solubility goes with much dissolved substance. For orientation: IC50 means the concentration needed to halve the response being measured. A word on the Tmax: it is the time from dosing to the highest level. A word on the AUC: it is concentration integrated over time. A low value points to less exposure. The Cmax is the peak of the concentration-time curve. Broadly, the Vdss is the apparent volume that relates the amount in the body to the concentration in plasma or blood. The bioavailability is dose-corrected exposure relative to a reference, in per cent. Read a high bioavailability as good availability. As a reminder, the AUC(0-inf) is the area under the concentration-time curve extrapolated to infinity.

The nature of series [1]: Lipophilicity, logD of the compound at pH 7.4. Type of series: physicochemical. The following applies: buffer.
Series [2] can be described thus: Inhibition of yeast DHODH expressed in Plasmodium falciparum. The arrangement: species or system Saccharomyces cerevisiae.
The nature of series [3]: Protein binding in rat plasma assessed as bound fraction by LC-MS analysis based ultracentrifugation assay. The class given is ADME, cell-free. Conditions: read-out: PPB (converted).
The nature of series [4]: Solubility of compound in FeSSIF at pH 5 measured after 5 to 6 hrs by HPLC-UV based analysis. Type of series: physicochemical. The following applies: simulated gi fluid, time 5-6 hrs.
Series [5] can be described thus: Elimination half-life in Swiss mouse at 20 mg/kg, po administered as single dose via gavage measured over 24 hrs by LC-MS analysis. The class given is ADME, organism-based. Conditions: in vivo, read-out: beta t1/2 (converted).
The nature of series [6]: Protein binding in mouse plasma assessed as bound fraction by LC-MS analysis based ultracentrifugation assay. The class given is ADME, cell-free. The following applies: read-out: PPB (converted).
For series [7], the target named is Voltage-gated inwardly rectifying potassium channel KCNH2 (Homo sapiens, UniProt Q12809).
Sequence of Voltage-gated inwardly rectifying potassium channel KCNH2 (Q12809 whole entry, the tested form may be a part): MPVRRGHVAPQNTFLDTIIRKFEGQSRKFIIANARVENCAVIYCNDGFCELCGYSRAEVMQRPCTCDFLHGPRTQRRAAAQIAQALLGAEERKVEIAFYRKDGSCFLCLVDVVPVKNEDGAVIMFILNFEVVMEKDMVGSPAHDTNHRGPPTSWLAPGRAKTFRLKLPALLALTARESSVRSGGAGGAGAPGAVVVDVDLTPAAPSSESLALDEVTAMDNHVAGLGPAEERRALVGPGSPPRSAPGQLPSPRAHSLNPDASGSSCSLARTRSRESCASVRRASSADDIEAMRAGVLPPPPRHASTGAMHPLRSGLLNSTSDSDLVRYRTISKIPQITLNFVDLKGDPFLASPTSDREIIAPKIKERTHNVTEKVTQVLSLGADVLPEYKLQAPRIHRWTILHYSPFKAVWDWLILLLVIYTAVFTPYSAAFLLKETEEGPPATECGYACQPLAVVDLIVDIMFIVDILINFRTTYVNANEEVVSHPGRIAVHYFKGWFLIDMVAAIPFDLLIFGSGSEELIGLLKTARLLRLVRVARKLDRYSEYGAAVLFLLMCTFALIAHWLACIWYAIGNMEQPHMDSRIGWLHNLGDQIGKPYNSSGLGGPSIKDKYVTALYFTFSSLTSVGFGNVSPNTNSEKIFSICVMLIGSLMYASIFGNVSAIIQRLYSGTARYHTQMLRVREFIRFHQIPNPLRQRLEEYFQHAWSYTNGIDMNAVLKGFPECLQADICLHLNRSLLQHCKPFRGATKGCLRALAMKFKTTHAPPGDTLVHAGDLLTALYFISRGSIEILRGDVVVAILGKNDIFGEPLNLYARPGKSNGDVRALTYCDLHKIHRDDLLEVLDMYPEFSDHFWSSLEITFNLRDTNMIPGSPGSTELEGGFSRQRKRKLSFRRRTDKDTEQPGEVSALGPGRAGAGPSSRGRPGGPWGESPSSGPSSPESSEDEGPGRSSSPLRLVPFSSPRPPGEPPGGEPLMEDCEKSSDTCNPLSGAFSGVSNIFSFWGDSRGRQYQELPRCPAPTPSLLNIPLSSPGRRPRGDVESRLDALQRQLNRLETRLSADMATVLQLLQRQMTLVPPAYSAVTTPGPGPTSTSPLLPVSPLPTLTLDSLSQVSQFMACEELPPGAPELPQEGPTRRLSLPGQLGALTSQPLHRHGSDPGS
Description: Inhibition of human ERG by patch clamp electrophysiology assay
A short description of series [8]: Unbound clearance in Sprague-Dawley rat at […], iv administered as infusion for 10 mins by LC-MS analysis. Type of series: ADME, organism-based. Conditions: in vivo, dose 1.6 mg/kg.
Series [9] is described as follows: Inhibition of N-terminal His6-tagged Plasmodium vivax DHODH expressed in Escherichia coli BL21 using L-DHO as substrate and CoQ as co-substrate by DCIP dye based spectrophotometric assay.
A short description of series [10]: Unbound volume of distribution at steady state in Sprague-Dawley rat at […], iv administered as infusion for 10 mins by LC-MS analysis. Type of series: ADME, organism-based. The following applies: in vivo, dose 1.6 mg/kg.
A short description of series [11]: Tmax in Swiss mouse at 20 mg/kg, po administered as single dose via gavage measured over 24 hrs by LC-MS analysis. Type of series: ADME, organism-based. Conditions: in vivo.
The nature of series [12]: Unbound AUC (0 to infinity) in Sprague-Dawley rat at […], iv by LC-MS analysis. Type of series: ADME, organism-based. Conditions: in vivo, dose 1.6 mg/kg.
The nature of series [13]: AUC (0 to infinity) in Sprague-Dawley rat at 17.5 mg/kg, po measured over 24 hrs by LC-MS analysis. Type of series: ADME, organism-based. The arrangement: route oral, dose 17.5 mg/kg, time >24. Conditions: in vivo.
Series [14] has as its target Cytochrome P450 3A4 (Homo sapiens, UniProt P08684). The series is described as follows: Inhibition of CYP3A4 in human liver microsomes using isoform-specific probe substrates in presence of NADPH-generating system by LC-MS analysis. The class given is ADME. Conditions: read-out: IC50. A general note: Liver microsomes are a subcellular fraction often used to study metabolism.

Series [15] relates to Plasmodium falciparum. The experiment in a line: Antiplasmodial activity against Plasmodium falciparum 3D7 infected in NSG mouse assessed as blood AUC level require to show 90% reduction in parasitemia administered orally on day 3 post-infection QD for 4 days and measured after 24 hrs post dose by LC-MS/MS analysis. The class given is functional, organism-based. The following applies: time 4.0 day.

Series [16] has as its target T1, Cytochrome P450 2C8 (Homo sapiens, UniProt P10632).
T1 sequence (P10632 whole entry): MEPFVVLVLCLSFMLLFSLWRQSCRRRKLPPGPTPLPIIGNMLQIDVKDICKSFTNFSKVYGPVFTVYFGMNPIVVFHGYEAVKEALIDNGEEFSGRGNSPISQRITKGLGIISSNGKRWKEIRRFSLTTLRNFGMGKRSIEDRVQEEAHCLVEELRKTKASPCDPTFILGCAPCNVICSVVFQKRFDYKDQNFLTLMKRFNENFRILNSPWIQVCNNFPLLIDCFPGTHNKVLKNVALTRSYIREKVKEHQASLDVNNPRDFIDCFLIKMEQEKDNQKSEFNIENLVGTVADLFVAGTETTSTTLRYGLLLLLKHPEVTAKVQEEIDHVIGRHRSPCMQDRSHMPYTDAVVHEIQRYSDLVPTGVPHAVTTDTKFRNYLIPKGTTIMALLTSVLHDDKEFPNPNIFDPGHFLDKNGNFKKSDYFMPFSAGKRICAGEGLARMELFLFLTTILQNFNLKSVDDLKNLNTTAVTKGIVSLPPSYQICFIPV
The experiment in a line: Inhibition of CYP2C8 in human liver microsomes using isoform-specific probe substrates in presence of NADPH-generating system by LC-MS analysis. Type of series: ADME.

Series [17] can be described thus: Cmax in Sprague-Dawley rat at 17.5 mg/kg, po measured over 24 hrs by LC-MS analysis. The class given is ADME, organism-based. Conditions: in vivo. Also noted: route oral, dose 17.5 mg/kg, time >24.
The nature of series [18]: Protein binding in human plasma assessed as bound fraction by LC-MS analysis based ultracentrifugation assay. The class given is ADME, cell-free. The following applies: read-out: PPB (converted).
Series [19] is described as follows: AUC (0 to infinity) in Sprague-Dawley rat at […], iv administered as infusion for 10 mins by LC-MS analysis. The following applies: in vivo. The arrangement: route intravenous, time 10 min, dose 1.6 mg/kg. Type of series: ADME, organism-based.
Series [20] can be described thus: Kinetic solubility of compound in phosphate buffer at pH 6.5 measured after 30 mins by HPLC-UV based analysis. Conditions: phosphate buffer, pH 6.5, read-out: Kinetic_solubility. The class given is physicochemical.
Series [21] in a line: Apparent half-life in rat Sprague-Dawley at […], iv administered as infusion for 10 mins by LC-MS analysis. Type of series: ADME, organism-based. The following applies: in vivo, dose 1.6 mg/kg.
Series [22] in a line: Volume of distribution at steady state in Sprague-Dawley rat at […], iv administered as infusion for 10 mins by LC-MS analysis. The class given is ADME, organism-based. Conditions: in vivo, dose 1.6 mg/kg.
The nature of series [23]: Protein binding in Sprague-Dawley rat plasma at […], iv administered as infusion for 10 mins by LC-MS analysis. Conditions: dose 1.6 mg/kg, read-out: PPB (converted). The class given is ADME, organism-based.
Series [24] is described as follows: Unbound AUC (0 to infinity) in Sprague-Dawley rat at 17.5 mg/kg, po measured over 24 hrs by LC-MS analysis. The following applies: in vivo. The class given is ADME, organism-based.
Series [25] in a line: Cmax in Swiss mouse at 20 mg/kg, po administered as single dose via gavage measured over 24 hrs by LC-MS analysis. Also noted: route oral, dose 20 mg/kg, time >24. The class given is ADME, organism-based. Conditions: in vivo.
Series [26] can be described thus: Oral bioavailability in Sprague-Dawley rat at 21.3 mg/kg measured over 24 hrs by LC-MS analysis. The class given is ADME, organism-based. The following applies: in vivo.
Series [27] is described as follows: Volume of distribution at steady state in Sprague-Dawley rat at 1.8 mg/kg, iv administered as infusion for 10 mins by LC-MS analysis. Type of series: ADME, organism-based. The following applies: in vivo.
A short description of series [28]: Cmax in Sprague-Dawley rat at 21.3 mg/kg, po measured over 24 hrs by LC-MS analysis. Also noted: route oral, dose 21.3 mg/kg, time >24. The class given is ADME, organism-based. The following applies: in vivo.
Series [29] in a line: Unbound Cmax in Sprague-Dawley rat at 21.3 mg/kg, po measured over 24 hrs by LC-MS analysis. Type of series: ADME, organism-based. The following applies: in vivo.
The nature of series [30]: Unbound volume of distribution at steady state Sprague-Dawley in rat at 1.8 mg/kg, iv administered as infusion for 10 mins by LC-MS analysis. Type of series: ADME, organism-based. Conditions: in vivo.
Series [31] can be described thus: AUC (0 to infinity) in Sprague-Dawley rat at 21.3 mg/kg, po measured over 24 hrs by LC-MS analysis. The class given is ADME, organism-based. The arrangement: route oral, dose 21.3 mg/kg, time >24. Conditions: in vivo.
A short description of series [32]: Tmax in Sprague-Dawley rat at 21.3 mg/kg, po measured over 24 hrs by LC-MS analysis. The following applies: in vivo. Type of series: ADME, organism-based.
Series [33] in a line: Solubility of compound in FeSSIF at pH 5.8 measured after 5 to 6 hrs by HPLC-UV based analysis. Conditions: simulated gi fluid, time 5-6 hrs. The class given is physicochemical.
Series [34] is described as follows: AUC (0 to infinity) in Sprague-Dawley rat at 1.8 mg/kg, iv administered as infusion for 10 mins by LC-MS analysis. Type of series: ADME, organism-based. The arrangement: route intravenous, time 10 min, dose 1.8 mg/kg. Conditions: in vivo.
Series [35] is described as follows: Unbound AUC (0 to infinity) in Sprague-Dawley rat at 1.8 mg/kg, iv by LC-MS analysis. The class given is ADME, organism-based. The following applies: in vivo.
Series [36] in a line: Unbound clearance in Sprague-Dawley rat at 1.8 mg/kg, iv administered as infusion for 10 mins by LC-MS analysis. Type of series: ADME, organism-based. Conditions: in vivo.

Sequence of Cytochrome P450 3A4 (P08684 whole entry, canonical isoform): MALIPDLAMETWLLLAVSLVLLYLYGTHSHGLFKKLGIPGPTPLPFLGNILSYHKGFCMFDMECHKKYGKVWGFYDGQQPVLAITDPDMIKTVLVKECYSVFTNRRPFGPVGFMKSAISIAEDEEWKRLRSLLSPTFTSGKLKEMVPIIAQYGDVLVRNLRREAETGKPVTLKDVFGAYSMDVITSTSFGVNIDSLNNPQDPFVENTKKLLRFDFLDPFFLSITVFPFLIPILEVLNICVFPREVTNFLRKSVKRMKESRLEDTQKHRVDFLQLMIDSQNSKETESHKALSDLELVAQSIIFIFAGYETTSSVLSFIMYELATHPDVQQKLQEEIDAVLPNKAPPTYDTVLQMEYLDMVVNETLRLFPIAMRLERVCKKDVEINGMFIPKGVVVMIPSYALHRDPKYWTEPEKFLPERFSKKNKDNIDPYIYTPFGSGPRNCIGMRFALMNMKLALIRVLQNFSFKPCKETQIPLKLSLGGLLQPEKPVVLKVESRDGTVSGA

On to `Cc1cc(N[C@H]2CCc3ccc(Cl)cc3C2)n2nc(C(C)(F)F)nc2n1`, for which, in [1], the logD stood at 3.9. This compound also came in with an EC50 in series [2] of 8600 nM. In addition, the fraction unbound in series [3] is 0.036; in [6], 0.026; in series [18], 0.033. Besides, the solubility in series [4] was 36 µg/mL (≈ 95.3 µM). Also, the half-life in series [5] was 2 h. Moreover, the IC50 in series [7] was 1500 nM; in series [9] it was 10 nM; in series [14], over 20000 nM; in series [16], over 20000 nM. The compound also displayed a CL free in series [8] of 589 mL/min/kg. Also, in series [10], the fVdss came to 186 L/kg. The Tmax in series [11] was determined as 1 h. Moreover, the fAUC in series [12] came to 0.12 µM·h; in series [24], 0.89 µM·h. Moreover, the AUC in [13] stood at 24.6 µM·h; in [19], 3.5 µM·h. The AUCED90 in series [15] came to 10.3 µM.hr/day. In addition, the Cmax in [17] turned out to be 3.3 µM; in series [25] it was 5 µM. In addition, in series [20], the solubility kinetic at 0.5 h was 3.1 µg/mL (≈ 8.2 µM). Moreover, the “t1/2(app)” value in [21] came out at 5.9 h. In series [22], this compound showed a Vdss of 6.7 L/kg. In addition, the fraction unbound at 10 min in [23] was 0.035.

On to `Cc1cc(NC2Cc3cc(F)c(F)cc3C2)n2nc(C(C)(F)F)nc2n1`, for which the bioavailability in series [26] is 63%. Also, the logD in series [1] was determined as 3.4. Moreover, the fraction unbound was 0.058 in [3], 0.047 in [6] and 0.066 in series [18]. Moreover, the half-life in series [5] is 2 h. In [27], this compound came in with a Vdss of 2.7 L/kg. The IC50 in series [9] is 370 nM; in series [14], over 20000 nM. This compound also yielded a Cmax in series [28] of 12.5 µM. In series [15], the AUCED90 is 137 µM.hr/day. Further, the fCmax in series [29] worked out at 0.72 µM. The compound further gave a fVdss in series [30] of 47 L/kg. The AUC(0-inf) in series [31] turned out to be 202 µM·h; in [34], 27.1 µM·h. In addition, in [32], the Tmax was 4 h. Also, the solubility kinetic at 0.5 h in series [20] was 6.3 µg/mL (≈ 17.2 µM). For the same compound, in series [33], the solubility was 65 µg/mL (≈ 178 µM). Moreover, the fAUC in series [35] was determined as 1.57 µM·h. In series [36], this compound yielded a CL free of 52 mL/min/kg.
